Common to all, as to assay type: in vivo
Experiment [1] relates to johnsongrass. The experiment can be described thus: Upland foliar application test by mixed formulations, concentration gradient (Test 8). The method, then:
(§1) Resin-made 1/10,000-are pots were filled with the soil of an upland field. Redroot pigweed and johnsongrass were separately seeded and were allowed to germinate in a green house. When each plant grew to the stage of 2-3 leaves, emulsions formulated with concentration gradient from predetermined amounts of two test compounds of different kinds in a similar manner to the method described in Formulation Example 16 was diluted with water to a predetermined dilution rate and then sprayed at an application rate equal to 5 l per are onto the foliage of each plant by means of a pressure-operated ULV (ultra low volume) sprayer. Influence to the weeds were observed on the 40th day after the spray of the herbicides. The results are shown in Table 9, In the table, Ea have the same meanings as in Test 7, and Ea>Ec indicates the existence of synergistic action while Ea<Ec indicates the existence of antagonistic action.

Experiment [2] concerns redroot pigweed. The experiment is described as above. The method, then: as §1
The subject of experiment [3] is johnsongrass. Kind of experiment: Upland foliar application test by mixed formulations (Test 7). To be noted: Sorghum halepense, 720 h; for pest or weed control at 1000 g/ha: read-out: Herbicidal effects (%) Johnsongrass Ea, applied alone, 1 kg/ha, foliar, 30th day; for pest or weed control at 300 g/ha: read-out: Herbicidal effects (%) Johnsongrass Ea, applied alone, 0.3 kg/ha, foliar, 30th day. The method, then: (§2) Resin-made 1/10,000-are pots were filled with the soil of an upland field. Redroot pigweed, morningglories, johnsongrass, barnyardgrass and green foxtail were separately seeded and were allowed to germinate in a green house. When each plant grew to the stage of 2-3 leaves, an emulsion formulated from predetermined amounts of two test compounds of different kinds in a similar manner to the method described in Formulation Example 16 was diluted with water to a predetermined dilution rate and then sprayed at an application rate equal to 5 l per are onto the foliage of each plant by means of a pressure-operated ULV (ultra low volume) sprayer. Influence to the weeds were observed on the 30th day after the spray of the herbicides. In the table, each Ea means an acutally measured value of herbicidal activities when two kinds of herbicides were mixed. Each Ec is an expected value for herbicidal activities, calculated in accordance with the below-described calculation formula proposed by Colby et al. [Colby, S. R., Weed 15, 20-22 (1967)]. Ea>Ec indicates the existence of synergistic action while […] action. [formula] Ec: Growth inhibition rate (%) expected when Ingredient I and Ingredient II are mixed.
(§3) Ex: Growth inhibition rate (%) when treated with Ingredient I alone.
(§4) Ey: Growth inhibition rate (%) when treated with Ingredient II alone.

The test system of experiment [4] is redroot pigweed. Described as above. To be noted: Amaranthus retroflexus, 720 h, read-out: Herbicidal effects (%) Redrood pigweed Ea. The method, then:
as §2, §3, §4

For experiment [5], the system named is morningglories. The experiment is described as above. To be noted: Ipomoea, 720 h, read-out: Herbicidal effects (%) Morningglory Ea. On the procedure:
as §2, §3, §4

Experiment [6] relates to green foxtail. Described as above. To be noted: Setaria viridis, 720 h, read-out: Herbicidal effects (%) Green foxtail Ea. On the procedure: as §2, §3, §4
Experiment [7] concerns barnyardgrass. Described as above. To be noted: Echinochloa crus-galli, 720 h, read-out: Herbicidal effects (%) Barnyardgrass Ea. The method, then:
as §2, §3, §4

Where [8] appears, read: Sorghum halepense, 960 h, applied alone, 2 g/a, 40th day, read-out: Herbicidal effects Johnsongrass Ea.
Setting [9] is: Sorghum halepense, 960 h, applied alone, 4 g/a, 40th day, read-out: Herbicidal effects Johnsongrass Ea.
The mark [10] stands for this setting: Sorghum halepense, 960 h, applied alone, 8 g/a, 40th day, read-out: Herbicidal effects Johnsongrass Ea.
Where [11] appears, read: Amaranthus retroflexus, 960 h, applied alone, 2 g/a, 40th day, read-out: Herbicidal effects Redrood pigweed Ea.
Setting [12] is: Amaranthus retroflexus, 960 h, applied alone, 4 g/a, 40th day, read-out: Herbicidal effects Redrood pigweed Ea.
[13] abbreviates: Amaranthus retroflexus, 960 h, applied alone, 8 g/a, 40th day, read-out: Herbicidal effects Redrood pigweed Ea.
Setting [14] is: Sorghum halepense, 960 h, read-out: Herbicidal effects Johnsongrass Ea.
[15] abbreviates: Amaranthus retroflexus, 960 h, read-out: Herbicidal effects Redrood pigweed Ea.
Where [16] appears, read: read-out: Herbicidal effects (%) Johnsongrass Ea, applied alone, 0.5 kg/ha, foliar, 30th day.
The mark [17] stands for this setting: applied alone, 0.2 kg/ha, 30th day.

Where two headings read alike, the source gives them in different places.

For the molecule “2-methylthio-4-methylamino-6-isopropylamino-1,3,5-triazine [Ametryn]”, the “Herbicidal effects Johnsongrass Ea” value in experiment [1] (applied alone, 2 g/a, 40th day) is 0%; in experiment [1] (applied alone, 4 g/a, 40th day), 10%; in experiment [1] (applied alone, 8 g/a, 40th day) it was 20%. Further, the “Herbicidal effects Redrood pigweed Ea” value in experiment [2] (applied alone, 2 g/a, 40th day) is recorded as 10%; in experiment [2] (applied alone, 4 g/a, 40th day) it was 20%; in experiment [2] (applied alone, 8 g/a, 40th day) it was 30%.

For the molecule `CC(C)c1ccc(NC(=O)N(C)C)cc1` [Isoproturon, 3-(4-isopropylphenyl)-1,1-dimethylurea], the pest or weed control at 200 g/ha came out at 0% in experiment [1] (setting [8]) and 10% in experiment [2] (setting [11]). For the same molecule, the pest or weed control at 400 g/ha came to 10% in experiment [1] (setting [9]) and 20% in experiment [2] (setting [12]). The pest or weed control at 800 g/ha was 20% in experiment [1] (setting [10]) and 40% in experiment [2] (setting [13]).

On to `CCCC(C)C(=O)Nc1ccc(C(C)C)c(Cl)c1` (stereo not drawn) [MT-5950, N-(3-chloro-4-isopropylphenyl)-2-methylpentamide], for which the pest or weed control at 200 g/ha in experiment [1] (setting [8]) stood at 10%; in experiment [2] (setting [11]), 30%. Besides, the pest or weed control at 400 g/ha was found to be 10% in experiment [1] (setting [9]) and 70% in experiment [2] (setting [12]). Also, the pest or weed control at 800 g/ha in experiment [1] (setting [10]) came to 20%; in experiment [2] (setting [13]) it was 85%.

On to `CCc1cccc(CC)c1N(COC)C(=O)CCl` [alachlor, N-methoxymethyl-2',6'-diethyl-2-chloroacetanilide, reference compound], for which the pest or weed control at 1000 g/ha in experiment [3] amounted to 30%; in experiment [4] it was 40%.

Regarding `CCNc1nc(Cl)nc(NC(C)C)n1` [atrazine, 2-chloro-4-ethylamino-6-isopropylamino-1,3,5-triazine], the pest or weed control at 800 g/ha was 10% in experiment [3] (read-out: Herbicidal effects (%) Johnsongrass Ea, applied alone, 0.8 kg/ha, foliar, 30th day); 40% in experiment [4]; 10% in experiment [1] (setting [14]); 40% in experiment [2] (setting [15]). For the same molecule, the pest or weed control at 200 g/ha in experiment [1] (setting [14]) was 0%; in experiment [2] (setting [15]), 10%. Also, the figures for the pest or weed control at 400 g/ha in experiment [1] (setting [14]) and in experiment [2] (setting [15]) were 10% and 30%, respectively.

For `CC(C)N1C(=O)c2ccccc2NS1(=O)=O` [bentazon, 3-isopropyl-(1H)-2,1,3-benzothiadiazin-4-(3H)-one-2,2-dioxide], the pest or weed control at 500 g/ha was 0% in experiment [3] (applied alone, 0.5 kg/ha, 30th day, read-out: Herbicidal effects (%) Johnsongrass Ea) and 40% in experiment [4] (applied alone, 0.5 kg/ha, 30th day). Further, the pest or weed control at 200 g/ha was determined as 0% in experiment [1] (setting [8]) and 30% in experiment [2] (setting [11]). For the same molecule, the values for the pest or weed control at 400 g/ha in experiment [1] (setting [9]) and in experiment [2] (setting [12]) were 0% and 40%, respectively. For the same molecule, the pest or weed control at 800 g/ha in experiment [1] (setting [10]) turned out to be 20%; in experiment [2] (setting [13]) it was 70%.

Consider `CCNc1nc(Cl)nc(NC(C)(C)C#N)n1` [cyanazine, 2-(2-chloro-4-ethylamino-1,3,5-triazine-6-ylamino)-2-methylpropionitrile], for which, in experiment [3], the pest or weed control at 1000 g/ha turned out to be 10%. Also, the pest or weed control at 1000 g/ha in experiment [4] was 40%. Further, in experiment [1] (setting [14]), the pest or weed control at 400 g/ha amounted to 0%, the pest or weed control at 800 g/ha amounted to 10% and the pest or weed control at 1600 g/ha was found to be 20%. Also, in experiment [2] (setting [15]), the pest or weed control at 400 g/ha is 10%, the pest or weed control at 800 g/ha was 30% and the pest or weed control at 1600 g/ha came to 50%.

As to `CN(C)C(=O)Nc1ccc(Cl)c(Cl)c1` [diuron, 3-(3,4-dichlorophenyl)-1,1-dimethylurea], the values for the pest or weed control at 300 g/ha in experiment [3] and in experiment [4] were 10% and 40%, respectively. For the same molecule, the pest or weed control at 200 g/ha in experiment [1] (setting [14]) came out at 0%; in experiment [2] (setting [15]), 30%. Also, the pest or weed control at 400 g/ha in experiment [1] (setting [14]) came out at 10%; in experiment [2] (setting [15]) it was 70%. The pest or weed control at 800 g/ha in experiment [1] (setting [14]) is 20%; in experiment [2] (setting [15]), 85%.

For the molecule `CN(C)C(=O)Nc1cccc(C(F)(F)F)c1` [fluometuron, 1,1-dimethyl-3-(3-trifluoromethylphenyl)urea], the pest or weed control at 500 g/ha in experiment [3] (setting [16]) and in experiment [4] was 30% in each case. In addition, the figures for the pest or weed control at 200 g/ha in experiment [1] (setting [14]) and in experiment [2] (setting [15]) were 0% and 20%, respectively. The pest or weed control at 400 g/ha in experiment [1] (setting [14]) came out at 10%; in experiment [2] (setting [15]) it was 30%. The pest or weed control at 800 g/ha in experiment [1] (setting [14]) was determined as 20%; in experiment [2] (setting [15]), 50%.

As to `CON(C)C(=O)Nc1ccc(Cl)c(Cl)c1` [linuron, 3-(3,4-dichlorophenyl)-1-methoxy-1-methylurea], the pest or weed control at 300 g/ha in experiment [3] came out at 10%. For the same molecule, the pest or weed control at 300 g/ha in experiment [5] stood at 30%. In experiment [1] (setting [14]), the pest or weed control at 200 g/ha was determined as 0%, the pest or weed control at 400 g/ha was 10% and the pest or weed control at 800 g/ha turned out to be 20%. Moreover, in experiment [2] (setting [15]), the pest or weed control at 200 g/ha stood at 40%, the pest or weed control at 400 g/ha was determined as 70% and the pest or weed control at 800 g/ha amounted to 85%.

With `CCc1cccc(C)c1N(C(=O)CCl)C(C)COC` (stereo not drawn) [metolachlor, 2-chloro-2'-ethyl-6'-methyl-N-(2-methoxy-1-methylethyl)acetanilide, reference compound], the pest or weed control at 1000 g/ha in experiment [6] was 10%; in experiment [4], 40%.

As for `CSc1nnc(C(C)(C)C)c(=O)n1N` [metribuzin, 4-amino-6-tert-butyl-3-methylthio-1,2,4-triazin-5(4H)-one, reference compound], the pest or weed control at 200 g/ha in experiment [6] (setting [17]) was found to be 10%; in experiment [4] (setting [17]), 30%.

Take `O=C(O)c1ccccc1C(=O)Nc1cccc2ccccc12` [naptalam, 2-(1-naphthalenylaminocarbonyl)benzoic acid]: in experiment [3], the pest or weed control at 1000 g/ha was 10%. In experiment [4], the pest or weed control at 1000 g/ha came to 10%. In experiment [1] (setting [14]), the pest or weed control at 400 g/ha came out at 0%, the pest or weed control at 800 g/ha came to 10% and the pest or weed control at 1600 g/ha was 20%. Besides, in experiment [2] (setting [15]), the pest or weed control at 400 g/ha was 0%, the pest or weed control at 800 g/ha is 10% and the pest or weed control at 1600 g/ha is 20%.

Turning to `CSc1nc(NC(C)C)nc(NC(C)C)n1` [prometryn, 2-methylthio-4,6-bis(isopropylamino)-1,3,5-triazine], the pest or weed control at 500 g/ha in experiment [3] (setting [16]) is 20%. For the same molecule, in experiment [5], the pest or weed control at 500 g/ha worked out at 30%. Besides, in experiment [1] (setting [14]), the pest or weed control at 200 g/ha turned out to be 0%, the pest or weed control at 400 g/ha stood at 10% and the pest or weed control at 800 g/ha came out at 20%. In experiment [2] (setting [15]), the pest or weed control at 200 g/ha was found to be 10%, the pest or weed control at 400 g/ha turned out to be 20% and the pest or weed control at 800 g/ha turned out to be 40%.

Take `CCC(=O)Nc1ccc(Cl)c(Cl)c1` [propanil, N-(3,4-dichlorophenyl)propanamide]: the pest or weed control at 3000 g/ha is 40% in experiment [7] and 10% in experiment [3] (read-out: Herbicidal effects (%) Johnsongrass Ea, applied alone, 3 kg/ha, foliar, 30th day). Also, the pest or weed control at 2000 g/ha was 20% in experiment [1] (setting [14]) and 30% in experiment [2] (setting [15]). Also, the values for the pest or weed control at 4000 g/ha in experiment [1] (setting [14]) and in experiment [2] (setting [15]) were 30% and 70%, respectively. Also, the values for the pest or weed control at 8000 g/ha in experiment [1] (setting [14]) and in experiment [2] (setting [15]) were 50% and 70%, respectively.

For the origin of these results see US5053070A, “Pyrimidine derivatives, preparation processes thereof, herbicide containing the same, and herbicidal compositions containing the same along with other active ingredient” (Mitsui Toatsu Chemicals, Incorporated, priority 1988, dated 1991).
